Results on ten compounds are retold here after ChEMBL document CHEMBL4706675, “Ulmusakidian, a new coumarin glycoside and antifungal phenolic compounds from the root bark of Ulmus davidiana var. japonica” (2021).

This assay deals with Candida albicans. As to the kind of experiment: Antifungal activity against Candida albicans assessed as fungal growth inhibition. Format: functional, organism-based.

SMILES strings stand for the structures. Active and inactive are the calls of the source. The calls are words filed in the database; no cut-off is given here.

On to `COc1cc(C[C@@H](CO)[C@H](COC2OC[C@@H](O)[C@H](O)[C@H]2O)Cc2cc(OC)c(O)c(OC)c2)cc(OC)c1O` (stereo not given in full), for which the outcome was inactive.
As for `COc1ccc(-c2cc(=O)c3c(O)cc(O)cc3o2)cc1`, the outcome was inactive.
The value for `COc1cc([C@H]2c3cc(O)c(OC)cc3C[C@@H](CO)[C@@H]2COC2OC[C@@H](O)[C@H](O)[C@H]2O)ccc1O` (stereo not given in full) was “inactive”; that for `COc1ccc(-c2oc3cc(OC)cc(OC)c3c(=O)c2OC)cc1` was “inactive”.
`COc1cc2c(cc1O)[C@H](c1cc(OC)c(O)c(OC)c1)[C@@H](COC1OC[C@@H](O)[C@H](O)[C@H]1O)[C@H](CO)C2` (stereo not given in full): the outcome was inactive.
Under `COc1cc(O)c2c(=O)c(O[C@@H]3O[C@@H](C)[C@H](O)[C@@H](O)[C@H]3O)c(-c3ccc(O)c(O)c3)oc2c1` stands “inactive”.
The value for `COc1cc(C(=O)OC[C@H]2O[C@@H](Oc3c(O)c(OC)cc4ccc(=O)oc34)[C@H](O)[C@@H](O)[C@@H]2O)ccc1O` was “inactive”.
For the compound `COc1cc(C(=O)OC[C@H]2O[C@@H](Oc3c(O)c(OC)cc4ccc(=O)oc34)[C@H](O)[C@@H](O)[C@@H]2O)cc(OC)c1O`, the result was inactive.
On to `COc1ccc(-c2cc(=O)c3c(OC)cc(OC)cc3o2)cc1`, for which the result was inactive.
The value for `COc1cc([C@@H]2Oc3c(OC)cc(CCCO)cc3[C@H]2CO)ccc1O[C@@H]1O[C@@H](C)[C@H](O)[C@@H](O)[C@H]1O` was “inactive”.
